According to patent US12559474B2, “Triazine derivatives having virus replication inhibitory activity and pharmaceutical composition comprising the same” (priority 2021, dated 2026):
Like-named read-outs stand apart in the source and are kept apart here.

How the values were obtained:
[1] = target: SARS-CoV-2 3CL protease (Severe acute respiratory syndrome coronavirus 2, UniProt P0DTD1); assay: biochemical; settings: 50% SARS-CoV-2 3CL protease inhibitory concentration, read-out: IC50
[2] = system: SARS-CoV-2; assay: microbe, parasite or virus in culture; format: cell-based; settings: Severe acute respiratory syndrome coronavirus 2, VeroE6/TMPRSS2, 72 h, 50% SARS-CoV-2 infected cell death inhibitory concentration, VeroE6/TMPRSS2 cells, 3 days culture

Row | Compound | IC50 ([1]; given as class symbols) [µM] | EC50 ([2]; class symbols) [µM] | IC50 ([1]; RapidFire MS) [µM] | EC50 ([2]; CellTiter-Glo 2.0) [µM]
1 | CNc1nc2cc(Cl)c(Nc3nc(=O)n(-c4cncc(Cl)c4)c(=O)n3Cc3cc(C#N)c(F)cn3)cc2s1 [II-0126] | < 0.1 | 1 to 10 | – | –
2 | Cc1cncc(-n2c(=O)nc(Nc3ccc4nn(CC(F)(F)F)cc4c3)n(Cc3cc(C#N)ccc3C)c2=O)c1 [II-0299] | – | – | 0.0033 | 0.202
3 | Cn1cnc(Cn2c(=O)nc(Nc3cc4c(cc3Cl)OCC4)n(Cc3cc(F)c(F)c(F)c3F)c2=O)n1 [II-0017] | < 0.1 | < 1 | – | –
4 | COc1ccc(Nc2nc(=O)n(Cc3cc(-c4ccccc4)c[nH]c3=O)c(=O)n2Cc2cc(F)c(F)c(F)c2)cc1 [Compound I-0318] | 0.1 to 1 | 1 to 10 | 0.11 | 1.36
5 | Cc1cncc(-n2c(=O)nc(Nc3cc4cn(C)nc4cc3Cl)n(Cc3cc(Cl)cc(C#N)c3)c2=O)c1 [II-0186] | < 0.1 | 1 to 10 | – | –
6 | C[C@@H](O)Cn1cc2cc(Nc3nc(=O)n(Cc4ccc[nH]c4=O)c(=O)n3Cc3cc(F)c(F)c(F)c3)c(Cl)cc2n1 [Compound I-0425] | < 0.1 | 1 to 10 | – | –
7 | COc1ccc(Nc2nc(=O)n(-c3cccnc3)c(=O)n2Cc2cc(F)c(F)c(F)c2)cc1 [Compound I-0135] | 0.1 to 1 | 1 to 10 | – | –
8 | C=Cc1cc(Cn2c(Nc3cc4cn(C)nc4cc3Cl)nc(=O)n(-c3cncc(C)c3)c2=O)ccc1F [II-0587] | < 0.1 | < 1 | – | –
9 | N#Cc1cc(Cn2c(Nc3ccc4nn(CC(F)F)cc4c3)nc(=O)n(-c3cncc4ccccc34)c2=O)ccc1F [Compound I-0352] | < 0.1 | < 1 | – | –
10 | Cn1cnc(Cn2c(=O)cc(Nc3cc4cn(CC(F)F)nc4cc3Cl)n(Cc3cc(F)c(F)c(F)c3)c2=O)n1 [II-0429] | < 0.1 | 1 to 10 | – | –
11 | O=c1[nH]cc(F)cc1Cn1c(=O)nc(Nc2cc3c(cc2Cl)OCC3)n(Cc2cc(F)c(F)c(F)c2)c1=O [Compound I-0272] | < 0.1 | < 1 | – | –
12 | COC(=O)Nc1nc2cc(Cl)c(Nc3nc(=O)n(-c4cncc(C)c4)c(=O)n3Cc3ccc(F)c(C#N)c3)cc2s1 [II-0074] | – | – | 0.0036 | 0.248
13 | O=c1[nH]cccc1Cn1c(=O)nc(Nc2ccc(OC3CC3)cc2Cl)n(Cc2cc(F)c(F)c(F)c2)c1=O [Compound I-0392] | < 0.1 | 1 to 10 | – | –
14 | Cc1cncc(-n2c(=O)nc(Nc3cc4cn(C)nc4cc3Cl)n(Cc3cc(Cl)ccc3Cl)c2=O)c1 [II-0582] | < 0.1 | < 1 | – | –
15 | Cc1cncc(-n2c(=O)nc(Nc3cc4cn(C)nc4cc3Cl)n(Cc3cc(C#N)c(F)cc3CC(C)C)c2=O)c1 [II-0023] | < 0.1 | < 1 | – | –
16 | Cn1cc2cc(Nc3nc(=O)n(-c4cncc(Cl)c4)c(=O)n3Cc3cc(Cl)c(F)cn3)c(Cl)cc2n1 [II-0592] | < 0.1 | 1 to 10 | – | –
17 | COc1ccc(Nc2nc(=O)n(Cc3cscn3)c(=O)n2Cc2cc(F)c(F)c(F)c2)cc1 [II-0258] | – | – | 0.95 | 7.87
18 | CCn1cc2cc(Nc3nc(=O)n(-c4cncc(C)c4)c(=O)n3Cc3cc(C#N)ccc3C)c(Cl)cc2n1 [II-0493] | – | – | 0.0013 | 0.068
19 | Cc1cncc(-n2c(=O)nc(Nc3cc4cn(CC(F)F)nc4cc3Cl)n(Cc3cc(F)c(F)c(C#N)c3)c2=O)c1 [II-0568] | – | – | 0.0021 | 0.132

Row | Compound | IC50 ([1]; given as class symbols) [µM] | EC50 ([2]; class symbols) [µM] | IC50 ([1]; RapidFire MS) [µM] | EC50 ([2]; CellTiter-Glo 2.0) [µM]
20 | O=c1nc(Nc2cc3cn(CCN4CCOCC4)nc3cc2Cl)n(Cc2cc(F)c(F)cc2F)c(=O)n1-c1cncc2ccccc12 [II-0078] | < 0.1 | < 1 | – | –
21 | Cn1cnc(Cn2c(=O)nc(Nc3cc4cn(C)nc4cc3Cl)n(Cc3cc(F)c(F)c(F)c3)c2=O)c1 [Compound I-0426] | – | – | 0.0063 | 1.03
22 | Cc1cncc(-n2c(=O)nc(Nc3ccc4nn(CC(F)F)cc4c3)n(Cc3cc(F)c(F)c(C#N)c3)c2=O)c1 [II-0055] | – | – | 0.0045 | 0.18
23 | COc1ccc(Nc2nc(=O)n(-c3cncc4ccccc34)c(=O)n2Cc2ccc(F)c(C#N)c2)c(F)c1 [II-0178] | < 0.1 | < 1 | – | –
24 | Cc1cncc(-n2c(=O)nc(Nc3cc4cn(C)nc4cc3Cl)n(Cc3cc(C#N)ccc3C(F)(F)F)c2=O)c1 [II-0076] | < 0.1 | < 1 | – | –
25 | COc1cc(Cn2c(Nc3cc4cn(C)nc4cc3Cl)nc(=O)n(-c3cncc(C)c3)c2=O)ccc1F [II-0593] | < 0.1 | 1 to 10 | – | –
26 | COc1cc(Cl)c(Nc2nc(=O)n(-c3cncc(C)c3)c(=O)n2Cc2ccc(F)c(C#N)c2)cn1 [II-0479] | < 0.1 | 1 to 10 | – | –
27 | Cc1cncc(-n2c(=O)nc(N3CC4(CCOC4)C3)n(Cc3cc(F)c(F)c(F)c3)c2=O)c1 [II-0376] | – | – | 1 | 7.13
28 | Cc1cncc(-n2c(=O)nc(Nc3cc4cn(C)nc4cc3Cl)n(Cc3ccc(F)c(C#N)n3)c2=O)c1 [II-0539] | < 0.1 | 1 to 10 | – | –
29 | Cn1cc2cc(Nc3nc(=O)n(Cc4ncccn4)c(=O)n3Cc3cc(F)c(F)cc3F)c(Cl)cc2n1 [II-0245] | < 0.1 | < 1 | – | –
30 | Cc1cncc(-n2c(=O)nc(Nc3cc4cn(C)nc4cc3Cl)n(Cc3cc(Br)cc(C#N)c3)c2=O)c1 [II-0210] | < 0.1 | 1 to 10 | – | –
31 | Cn1ccc(-c2ccnc(Cn3c(=O)nc(Nc4cc5cn(C)nc5cc4Cl)n(Cc4cc(F)c(F)cc4F)c3=O)c2)n1 [II-0247] | < 0.1 | < 1 | – | –
32 | Cc1cncc(-n2c(=O)nc(Nc3cc4cn(C)nc4cc3Cl)n(Cc3cc(Cl)ccc3F)c2=O)c1 [II-0362] | < 0.1 | < 1 | – | –
33 | Cn1cnc(Cn2c(=O)nc(Nc3cc4cn(C)nc4cc3Cl)n(Cc3ccc(F)c(F)c3F)c2=O)n1 [II-0190] | < 0.1 | 1 to 10 | – | –
34 | N#Cc1cc(Cn2c(Nc3ccc4ncccc4c3)nc(=O)n(-c3cncc4ccccc34)c2=O)ccc1F [II-0200] | < 0.1 | 1 to 10 | – | –
35 | COc1ccc(Nc2nc(=O)n(Cc3cc(-c4ncco4)c[nH]c3=O)c(=O)n2Cc2cc(F)c(F)c(F)c2)cc1 [Compound I-0260] | < 0.1 | 1 to 10 | – | –
36 | O=c1[nH]cc(Cl)cc1Cn1c(=O)nc(Nc2cc3cn([C@H]4CCC[C@@H]4O)nc3cc2Cl)n(Cc2cc(F)c(F)c(F)c2)c1=O [Compound I-0251] | < 0.1 | 1 to 10 | – | –
37 | COc1ccc(Nc2nc(=O)n(Cc3cc(Br)c[nH]c3=O)c(=O)n2Cc2cc(F)c(F)c(F)c2)cc1 [Compound I-0310] | < 0.1 | 1 to 10 | – | –
38 | Cc1cncc(-n2c(=O)nc(Nc3ccc4nn(C)cc4c3)n(Cc3cc(C#N)c(F)cc3C)c2=O)c1 [II-0290] | – | – | 0.0035 | 0.21

Row | Compound | IC50 ([1]; given as class symbols) [µM] | EC50 ([2]; class symbols) [µM] | IC50 ([1]; RapidFire MS) [µM] | EC50 ([2]; CellTiter-Glo 2.0) [µM]
39 | Cc1ccc(C#N)cc1Cn1c(Nc2ccc3nn(CC(F)(F)F)cc3c2)nc(=O)n(-c2cncc(Cl)c2)c1=O [II-0304] | – | – | 0.0045 | 0.213
40 | Cc1cncc(-n2c(=O)nc(Nc3cc4cn(CC(F)F)nc4cc3F)n(Cc3cc(F)c(F)c(F)c3)c2=O)c1 [II-0518] | < 0.1 | 1 to 10 | – | –
41 | Cn1cnc(Cn2c(=O)nc(Nc3cc4cn(CC(C)(C)O)nc4cc3Cl)n(Cc3cc(F)c(F)c(Cl)c3)c2=O)n1 [II-0305] | < 0.1 | 1 to 10 | – | –
42 | CNc1nc2cc(F)c(Nc3nc(=O)n(-c4cncc(C)c4)c(=O)n3Cc3ccc(F)c(C#N)c3)cc2s1 [II-0283] | < 0.1 | < 1 | – | –
43 | Cc1cncc(-n2c(=O)nc(Nc3cc4cn(C)nc4cc3Cl)n(Cc3cc(C#N)ccc3N)c2=O)c1 [II-0585] | < 0.1 | 1 to 10 | – | –
44 | Cc1cncc(-n2c(=O)nc(Nc3cc4cn(C)nc4cc3Cl)n(Cc3cc(F)c(F)cc3C)c2=O)c1 [II-0403] | < 0.1 | < 1 | – | –
45 | CC(C)(O)Cn1cc2cc(Nc3nc(=O)n(Cc4ncccn4)c(=O)n3Cc3cc(F)c(F)c(Cl)c3)c(Cl)cc2n1 [II-0241] | – | – | 0.024 | 1.39
46 | CCn1cc2cc(Nc3nc(=O)n(-c4cncc(Cl)c4)c(=O)n3Cc3ccc(F)c(C#N)c3)ccc2n1 [II-0566] | – | – | 0.027 | 0.898
47 | Cn1cc2cc(Nc3nc(=O)n(Cc4cc5cccnc5[nH]c4=O)c(=O)n3Cc3cc(F)c(F)c(F)c3)c(Cl)cc2n1 [Compound I-0236] | < 0.1 | < 1 | – | –
48 | COc1ccc(Nc2nc(=O)n(-c3cncc(C)c3)c(=O)n2Cc2ccc(F)c(C#N)c2)c(Cl)c1 [II-0165] | < 0.1 | < 1 | – | –
49 | Cn1cc2cc(Nc3nc(=O)n(-c4cnc5ccccn45)c(=O)n3Cc3cc(Cl)c(F)cc3F)c(Cl)cc2n1 [II-0487] | < 0.1 | 1 to 10 | – | –
50 | CCNC(=O)Cn1c(=O)nc(Nc2cc3cn(C)nc3cc2Cl)n(Cc2cc(F)c(F)c(F)c2)c1=O [II-0329] | – | – | 0.14 | 11.5
51 | Cc1cncc(-n2c(=O)nc(Nc3cc4cn(C)nc4cc3Cl)n(Cc3cc(F)c(F)c(F)c3)c2=O)c1F [II-0270] | < 0.1 | 1 to 10 | – | –
52 | Cc1nc2cc(Cl)c(Nc3nc(=O)n(Cc4ccc[nH]c4=O)c(=O)n3Cc3ccc(F)c(Cl)c3)cc2n1C [Compound I-0007] | < 0.1 | 1 to 10 | – | –
53 | CC1(Cn2cc3cc(Nc4nc(=O)n(Cc5ccc[nH]c5=O)c(=O)n4Cc4cc(F)c(F)c(F)c4)c(Cl)cc3n2)COC1 [II-0099] | < 0.1 | 1 to 10 | – | –
54 | Cn1cc2cc(Nc3nc(=O)n(-c4cncc(N)c4)c(=O)n3Cc3cc(Cl)c(F)cc3F)c(Cl)cc2n1 [II-0381] | < 0.1 | < 1 | – | –
55 | COc1ccc(Nc2nc(=O)n(-c3cncc4ccccc34)c(=O)n2Cc2ccc(F)c(C#N)c2)cc1 [Compound I-0377] | – | – | 0.008 | 0.0729
56 | Cn1cc2cc(Nc3nc(=O)n(-c4cncc(Cl)c4)c(=O)n3Cc3cc(F)c(F)c(Cl)c3)ccc2n1 [II-0109] | – | – | 0.04 | 0.798
57 | Cc1cncc(-n2c(=O)nc(Nc3cc4cn(C)nc4cc3Cl)n(Cc3cc(Cl)c(F)cc3C)c2=O)c1 [II-0043] | – | – | 0.0058 | 0.232
